Measured values as given in patent EP0140848A1, “A pharmaceutical composition containing azo-bis-salicylic acid or a salt thereof, and a method for the treatment of inflammatory conditions in the intestines” (priority 1983, dated 1985).

Assays:
tuberculosis = details: according to Ind. J. Med. Res. 40 (1952), p. 4-5, and Ind. J. Pharm. 13 (1951), p. 3-5; cited from earlier work
[1] = Toxicity (general statement, no method described); details: no data or method given

| Structure (SMILES) | activity against tuberculosis (tuberculosis) | toxicity [1] |
| --- | --- | --- |
| O=C(O)c1ccc(N=Nc2ccc(C(=O)O)c(O)c2)cc1O [4,4'-azo-bis-salicylic acid] | inactive | remarkably low |
| CC(=O)Nc1ccc(C(=O)O)c(O)c1 [Ac-PAS, N-acetyl-p-aminosalicylic acid] | – | remarkably low |
| Nc1ccc(C(=O)O)c(O)c1 [PAS, 4-aminosalicylic acid, reference compound] | – | remarkably low |
